Experimental data reported in US9095567B2, “Vaccine formulations” (priority 2010, dated 2015).

How the values were obtained:
Assay in all cases: Preservative effectiveness test, single challenge
Format in all cases: cell-based
[1] = system: Aspergillus niger (ATCC #16404); settings: Prev(e)nar 13 formulation, single challenge, 20 to 25° C.
Source text: (§1) To test for preservative effectiveness, aliquots of vaccine were inoculated with the following organisms:
(§2) Thirty milliliters (ml) of each vaccine formulation with and without Thimerosal or 2-PE at indicated concentrations or saline containing Thimerosal at 0.02% were inoculated in triplicates with a suspension of each test organism to achieve an inoculum density of approximately 10^5 to 10^6 CFU/ml at time 0 (CFU=colony forming units). […] Samples were mixed to ensure even distribution of challenged organisms. Another 30 ml of vaccine in triplicate (with and without preservative) were used as a negative control and spiked with the culture media alone to evaluate the inherent contamination that might be present in the sample or media. Each of the three series of vaccines, and positive and negative controls, was then separately incubated at 20 to 25° C. Aliquots (1 ml) of the challenged samples and controls (or their appropriate serial ten fold dilutions) were enumerated by plate count in duplicates at time 0 and at intervals of 6 hours, 24 hours, 7 days, 14 days and 28 days post-inoculation.
(§3) USP 29 NF 24 Supplement 2 (USP) requires that, after an inoculation of bacterial micro-organism(s), there is at least 1.0 log reduction from the initial calculated count (i.e., at time of inoculation) at 7 days, at least 3.0 log reduction at 14 days from the previous value measured and no increase at 28 days from the previous measured value. For yeast and fungi, the USP requirement is for there to be no increase from the time of inoculation to 7, 14 and 28 days.
(§4) EP requirements are more stringent. EP 5th Edition 5.6 (5.1.3) requirements for parenteral and ophthalmic preparations has two components: Category A and Category B. Category A (EP-A) requires, for bacteria, at least 2.0 log reduction from the initial calculated count at 6 hours after inoculation, at least 3.0 log reduction at 24 hours from the previous measured value, and no recovery at 28 days. Category B (EP-B) requires, for bacteria, at least 1.0 log reduction at 24 hours from the initial calculated count, at least 3.0 log reduction at 7 days from the previous value measured and not more than 0.5 log increase at 28 days from the previous value measured (i.e., no increase). For yeast and fungi, Category A requires at least 2.0 log reduction at 7 days and no increase from the previous value measured at 28 days, and Category B requires at least 1.0 log reduction at 14 days and no increase from the previous value measured at 28 days.
(§5) Plates containing <300 CFU for bacteria or <100 CFU for yeast or mold were used during enumeration. For single challenge studies, arithmetic average count of all surviving micro-organisms in triplicate and on duplicate plates (6 values per time point) plus their diluted samples were measured and normalized as CFU/ml. The results are expressed as mean log10 CFU/ml reduction (compared to time 0). In this case, the count of surviving micro-organisms is evaluated at time 0 as the baseline and compared to incubation time of 6 hours, 24 hours, 7 days, 14 days and 28 days.

[2] = system: Candida albicans (ATCC#10231); settings: Prev(e)nar 13 formulation, single challenge, 20 to 25° C.
Source text: as §1, §2, §3, §4, §5

E. coli = settings: Prev(e)nar 13 formulation, 20 to 25° C.
Source text: as §1, §2, §3, §4, §5

[3] = system: Pseudomonas aeruginosa (ATCC #9027); settings: Prev(e)nar 13 formulation, 20 to 25° C.
Source text: as §1, §2, §3, §4, §5

[4] = system: Staphylococcus aureus (ATCC #6538); settings: Prev(e)nar 13 formulation, single challenge, 20 to 25° C.
Source text: as §1, §2, §3, §4, §5

| Compound | EP (EP-B) vaccine safety requirements, A. niger [1] | USP vaccine safety requirements, A. niger [1] | EP (EP-B) vaccine safety requirements, C. albicans [2] | USP vaccine safety requirements, C. albicans [2] | EP (EP-B) vaccine safety requirements, E. coli (E. coli) | USP vaccine safety requirements, E. coli (E. coli) | EP (EP-B) vaccine safety requirements, P. aeruginosa [3] | USP vaccine safety requirements, P. aeruginosa [3] | EP (EP-B) vaccine safety requirements, S aureus [4] | USP vaccine safety requirements, S aureus [4] |
| --- | --- | --- | --- | --- | --- | --- | --- | --- | --- | --- |
| Cc1cccc(O)c1 [0.3% m cresol, Meta-Cresol] | Meets | Meets | Meets | Meets | Fails | Meets | Fails | Meets | Fails | Meets |
| Oc1ccccc1 [0.25% phenol, Phenol] | Meets | Meets | Meets | Meets | Fails | Meets | Fails | Meets | Fails | Meets |
